Measured values: patent US5004780A, “Cyclic monoperoxyketal” (priority 1988, dated 1991)

Experiments:
Format in all cases: physicochemical
[1] = Solubility of peroxyketal in unsaturated polyester resin; parameters: key: .circle.: Complete dissolving; Δ: Fairly long time was required in dissolving; X: Incomplete dissolving (white turbid)
[2] = Amounts of ketone and alcohol formed by the thermal decomposition of peroxyketal in cumene; settings: 100° C.
Description: The amount of ketone and that of alcohol contained in each of the thermal decomposition solutions obtained in Examples 6-12 and Comparative examples 1-6 were measured by means of a gas chromatography. The numbers of mols of ketone and alcohol per 1 mol of each of decomposed cyclic monoperoxyketal or cyclic bisperoxyketal were measured. The obtained results are shown in the following Table 4 as Examples 17-22 and Comparative examples 8-13.

[3] = Thermal decomposition of peroxyketal in cumene at 100° C.; settings: 0.05 mol/l; for Half-life period: 50000 µM
Description: (§1) A 0.05 mol/l cumene solution of each of the cyclic monoperoxyketals of the present invention produced in Examples 1-6 and the cyclic bisperoxyketals produced in the same manner as described in Examples 1-6 was prepared. A given amount of each sample solution was sampled into a glass ampule, and the sample solution was deaerated by a freezing method, and then the ampule was sealed under vacuum. Then, the ampules were put in a thermostat kept at 100° C., and taken out from the thermostate every predetermined times, and the concentration of peroxyketal was measured by a gas chromatography or liquid chromatography. The decomposition rate constant and half-life period of a sample peroxyketal were calculated from the disappearing rate of the peroxyketal. The obtained results are shown in the following Table 1 as Examples 6-12 and Comparative examples 1-6.

[4] = Thermal decomposition product of peroxyketal in cumene (gas chromatography)
Description: Each of the thermal decomposition reaction solutions of Example 7 and Comparative example 1 was analyzed by means of a gas chromatography to measure the thermal decomposition products. The number of mols of the decomposition products per 1 mol of each of the decomposed peroxyketals was calculated. The obtained results are shown in the following Table 3 as Example 16 and Comparative example 7.

[5] = Thermal decomposition of 1-methoxy-1-(1,1-dimethylethylperoxy)cyclohexane at 100° C. in n-hexane, n-dodecane or n-hexadecane; settings: for Half-life period: 50000 µM
Description: as §1
Thermal decomposition of 1-methoxy-1-(1,1-dimethylethylperoxy)cyclohexane at 100° C. was carried out in the same manner as described in Example 7, except that n-hexane, n-dodecane or n-hexadecane was used as a solvent in place of cumene, and the thermal decomposition rate constant and half-life period of the cyclic monoperoxyketal in these solvents were measured.

[6] = n-hexadecane, viscosity 0.900 cp

SMILES: CC(C)(C)OOC1(OOC(C)(C)C)CCCCC1 [Comparative example 1, 1,1-bis(1,1-dimethylethylperoxy)cyclohexane, reference compound]
- Solubility [1]: .circle.
- Ratio of ketone to alcohol [2]: 0.01
- Thermal decomposition product: Alcohol [2]: 1.37 mols per 1 mol of decomposed p
- Thermal decomposition product: Ketone [2]: 0.02 mols per 1 mol of decomposed p
- Decomposition rate constant [3]: 5.06 ×10^5 (1/sec)
- Half-life period [3]: 3.81 h
- Thermal decomposition product: 1,1-dimethylperoxyhexanoate ([4]; 100° C., 1,1-dimethylperoxyhexanoate): 0.35 Number of mols per 1 mol of de
- Thermal decomposition product: biscumyl ([4]; 100° C.): 0.69 Number of mols per 1 mol of de
- Thermal decomposition product: t-butanol ([4]; 100° C.): 1.06 Number of mols per 1 mol of de

SMILES: COC1(OOC(C)(C)C)CCCCC1 [Example 7, 1-methoxy-1-(1,1-dimethylethylperoxy)cyclohexane]
- Decomposition rate constant ([5]; n-dodecane, viscosity 0.520 cp): 4.71 ×10^5 (1/sec)
- Half-life period ([5]; n-dodecane, viscosity 0.520 cp): 4.09 h
- Decomposition rate constant [5, 6]: 4.23 ×10^5 (1/sec)
- Half-life period [5, 6]: 4.55 h
- Decomposition rate constant ([5]; n-hexane, viscosity 0.168 cp): 5.13 ×10^5 (1/sec)
- Half-life period ([5]; n-hexane, viscosity 0.168 cp): 3.75 h
- Solubility [1]: .circle.
- Ratio of ketone to alcohol [2]: 0.21
- Thermal decomposition product: Alcohol [2]: 0.47 mols per 1 mol of decomposed p
- Thermal decomposition product: Ketone [2]: 0.10 mols per 1 mol of decomposed p
- Decomposition rate constant [3]: 6.79 ×10^5 (1/sec)
- Half-life period [3]: 2.84 h
- Thermal decomposition product: acetone ([4]; 100° C., acetone): 0.10 Number of mols per 1 mol of de
- Thermal decomposition product: biscumyl ([4]; 100° C.): 0.50 Number of mols per 1 mol of de
- Thermal decomposition product: methyl hexanoate ([4]; 100° C., methyl hexanoate): 0.59 Number of mols per 1 mol of de
- Thermal decomposition product: t-butanol ([4]; 100° C.): 0.47 Number of mols per 1 mol of de

SMILES: CCC(C)(C)OOC1(OC)CCCCC1 [Example 8, 1-methoxy-1-(1,1-dimethylpropylperoxy)cyclohexane]
- Solubility [1]: .circle.
- Ratio of ketone to alcohol [2]: 5.71
- Thermal decomposition product: Alcohol [2]: 0.14 mols per 1 mol of decomposed p
- Thermal decomposition product: Ketone [2]: 0.80 mols per 1 mol of decomposed p
- Decomposition rate constant [3]: 10.58 ×10^5 (1/sec)
- Half-life period [3]: 1.82 h

SMILES: CCCC(C)(C)OOC1(OC)CCCCC1 [Example 9, 1-methoxy-1-(1,1-dimethylbutylperoxy)cyclohexane]
- Solubility [1]: .circle.
- Ratio of ketone to alcohol [2]: 2.26
- Thermal decomposition product: Alcohol [2]: 0.31 mols per 1 mol of decomposed p
- Thermal decomposition product: Ketone [2]: 0.70 mols per 1 mol of decomposed p
- Decomposition rate constant [3]: 11.20 ×10^5 (1/sec)
- Half-life period [3]: 1.72 h

SMILES: COC1(OOC(C)(C)CC(C)(C)C)CCCCC1 [Example 10, 1-methoxy-1-(1,1,3,3-tetramethylbutylperoxy)cyclohexane]
- Solubility [1]: .circle.
- Ratio of ketone to alcohol [2]: 79.0
- Thermal decomposition product: Alcohol [2]: 0.01 mols per 1 mol of decomposed p
- Thermal decomposition product: Ketone [2]: 0.79 mols per 1 mol of decomposed p
- Decomposition rate constant [3]: 28.40 ×10^5 (1/sec)
- Half-life period [3]: 0.68 h

SMILES: COC1(OOC(C)(C)c2ccccc2)CCCCC1 [Example 11, 1-methoxy-1-(1-methyl-1-phenylethylperoxy)cyclohexane]
- Solubility [1]: .circle.
- Ratio of ketone to alcohol [2]: 0.42
- Thermal decomposition product: Alcohol [2]: 0.60 mols per 1 mol of decomposed p
- Thermal decomposition product: Ketone (Acetophenone is formed) [2]: 0.25 mols per 1 mol of decomposed p
- Decomposition rate constant [3]: 11.32 ×10^5 (1/sec)
- Half-life period [3]: 1.70 h

SMILES: CCCC(C)(C)OOC1(OC)CC(C)CC(C)(C)C1 (centres unmarked) [Example 12, 1-methoxy-1-(1,1-dimethylbutylperoxy)-3,3,5-trimethylcyclohexane]
- Solubility [1]: .circle.
- Ratio of ketone to alcohol [2]: 2.27
- Thermal decomposition product: Alcohol [2]: 0.30 mols per 1 mol of decomposed p
- Thermal decomposition product: Ketone [2]: 0.68 mols per 1 mol of decomposed p
- Decomposition rate constant [3]: 11.25 ×10^5 (1/sec)
- Half-life period [3]: 1.71 h

SMILES: CCC(C)(C)OOC1(OOC(C)(C)CC)CCCCC1 [compound 2, 1,1-bis(1,1-dimethylpropylperoxy)cyclohexane, reference compound]
- Solubility [1]: Δ
- Ratio of ketone to alcohol [2]: 2.81
- Thermal decomposition product: Alcohol [2]: 0.26 mols per 1 mol of decomposed p
- Thermal decomposition product: Ketone [2]: 0.73 mols per 1 mol of decomposed p
- Decomposition rate constant [3]: 7.32 ×10^5 (1/sec)
- Half-life period [3]: 2.63 h

SMILES: CCCC(C)(C)OOC1(OOC(C)(C)CCC)CCCCC1 [compound 3, 1,1-bis(1,1-dimethylbutylperoxy)cyclohexane, reference compound]
- Solubility [1]: Δ
- Ratio of ketone to alcohol [2]: 1.28
- Thermal decomposition product: Alcohol [2]: 0.65 mols per 1 mol of decomposed p
- Thermal decomposition product: Ketone [2]: 0.83 mols per 1 mol of decomposed p
- Decomposition rate constant [3]: 7.48 ×10^5 (1/sec)
- Half-life period [3]: 2.57 h

SMILES: CC(C)(C)CC(C)(C)OOC1(OOC(C)(C)CC(C)(C)C)CCCCC1 [compound 4, 1,1-bis(1,1,3,3-tetramethylbutylperoxy)cyclohexane, reference compound]
- Solubility [1]: X
- Ratio of ketone to alcohol [2]: 1.21
- Thermal decomposition product: Alcohol [2]: 0.24 mols per 1 mol of decomposed p
- Thermal decomposition product: Ketone [2]: 0.29 mols per 1 mol of decomposed p
- Decomposition rate constant [3]: 19.83 ×10^5 (1/sec)
- Half-life period [3]: 0.97 h

SMILES: CC(C)(OOC1(OOC(C)(C)c2ccccc2)CCCCC1)c1ccccc1 [compound 5, 1,1-bis(1-methyl-1-phenylethylperoxy)cyclohexane, reference compound]
- Solubility [1]: .circle.
- Ratio of ketone to alcohol [2]: 0.41
- Thermal decomposition product: Alcohol [2]: 1.00 mols per 1 mol of decomposed p
- Thermal decomposition product: Ketone (Acetophenone is formed) [2]: 0.41 mols per 1 mol of decomposed p
- Decomposition rate constant [3]: 8.24 ×10^5 (1/sec)
- Half-life period [3]: 2.34 h

SMILES: CCCC(C)(C)OOC1(OOC(C)(C)CCC)CC(C)CC(C)(C)C1 (centres unmarked) [compound 6, 1,1-bis(1,1-dimethylbutylperoxy)-3,3,5-trimethylcyclohexane, reference compound]
- Solubility [1]: Δ
- Ratio of ketone to alcohol [2]: 1.25
- Thermal decomposition product: Alcohol [2]: 0.64 mols per 1 mol of decomposed p
- Thermal decomposition product: Ketone [2]: 0.80 mols per 1 mol of decomposed p
- Decomposition rate constant [3]: 7.50 ×10^5 (1/sec)
- Half-life period [3]: 2.57 h

SMILES: CC(C)(C)OOC(=O)c1ccccc1 [compound 28, 1,1-dimethylethyl peroxybenzoate]
- Solubility [1]: .circle.
